In patent US7119206B2, “Derivative of dihydro-dibenzo (a) anthracenes and their use as selective estrogen receptor modulators” (Eli Lilly and Company, priority 2002, dated 2006):

Columns and labels:
[1] = target: T1, ERAlpha receptor (Homo sapiens, UniProt P03372); experiment: ER alpha competition binding assay (3H-Estradiol); conditions: 3H-Estradiol competition; IC50 converted to Ki using Cheng-Prusoff; read-out: ER binding Ki (ERα)
T1 construct: purchased PanVera
T1 sequence (P03372 1-595): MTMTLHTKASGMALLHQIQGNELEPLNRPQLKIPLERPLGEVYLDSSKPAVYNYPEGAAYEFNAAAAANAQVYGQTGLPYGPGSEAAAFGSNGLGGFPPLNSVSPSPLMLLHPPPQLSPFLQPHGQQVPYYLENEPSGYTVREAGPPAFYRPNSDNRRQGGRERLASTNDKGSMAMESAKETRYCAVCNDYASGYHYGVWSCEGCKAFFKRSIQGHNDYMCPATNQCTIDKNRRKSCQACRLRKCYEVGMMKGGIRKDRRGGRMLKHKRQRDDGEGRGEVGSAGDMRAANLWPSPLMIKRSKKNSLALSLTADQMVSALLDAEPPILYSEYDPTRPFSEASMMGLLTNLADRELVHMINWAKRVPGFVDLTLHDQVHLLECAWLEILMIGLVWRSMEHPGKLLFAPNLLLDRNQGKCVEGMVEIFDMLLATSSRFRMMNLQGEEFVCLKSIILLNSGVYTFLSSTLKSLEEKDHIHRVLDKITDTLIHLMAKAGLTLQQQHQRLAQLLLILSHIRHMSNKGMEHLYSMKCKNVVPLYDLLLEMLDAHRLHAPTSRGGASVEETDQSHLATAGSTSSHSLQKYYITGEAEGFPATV
Experimental: (§1) Competition binding assay is run in a buffer containing 50 mM Hepes, pH 7.5, 1.5 mM EDTA, 150 mM NaCl, 10% glycerol, 1 mg/ml ovalbumin and 5 mM DTT, using 0.025 μCi per well ^3H-Estradiol(NEN #NET517 at 118 Ci/mmol, 1 mCi/ml), 10 ng/well ERAlpha or ERbeta receptor (PanVera). Competing compounds are added at 10 different concentrations. Non-specific binding is determined in the presence of 1 μM of 17-B Estradiol. The binding reaction (140 μl) is incubated for 4 hours at room temperature, then 70 μl of cold DCC buffer is added to each reaction (DCC buffer contains per 50 ml of assay buffer, 0.75 g of charcoal (Sigma) and 0.25 g of dextran (Pharmacia)). Plates are mixed 8 minutes on an orbital shaker at 4° C. Plates are then centrifuged at 3,000 rpm at 4° C. for 10 minutes. An aliquot of 120 μl of the mix is transferred to another 96-well, white flat bottom plate (Costar) and 175 μl of Wallac Optiphase “Hisafe 3” scintillation fluid is added to each well. Plates are sealed and shaken vigorously on an orbital shaker. After an incubation of 2.5 hrs, read plates in a Wallac Microbeta counter. […] The Kd for ^3H-Estradiol is determined by saturation binding to ER alpha and ER beta receptors. The IC50 values for compounds are converted to Ki using Cheng-Prusoff equation and the Kd determined by saturation binding assay.

[2] = target: T2, ERbeta receptor (Homo sapiens, UniProt Q92731); experiment: ER beta competition binding assay (3H-Estradiol); conditions: 3H-Estradiol competition; IC50 converted to Ki using Cheng-Prusoff; read-out: ER binding Ki (ERβ)
T2 construct: purchased PanVera
T2 sequence (Q92731 whole entry): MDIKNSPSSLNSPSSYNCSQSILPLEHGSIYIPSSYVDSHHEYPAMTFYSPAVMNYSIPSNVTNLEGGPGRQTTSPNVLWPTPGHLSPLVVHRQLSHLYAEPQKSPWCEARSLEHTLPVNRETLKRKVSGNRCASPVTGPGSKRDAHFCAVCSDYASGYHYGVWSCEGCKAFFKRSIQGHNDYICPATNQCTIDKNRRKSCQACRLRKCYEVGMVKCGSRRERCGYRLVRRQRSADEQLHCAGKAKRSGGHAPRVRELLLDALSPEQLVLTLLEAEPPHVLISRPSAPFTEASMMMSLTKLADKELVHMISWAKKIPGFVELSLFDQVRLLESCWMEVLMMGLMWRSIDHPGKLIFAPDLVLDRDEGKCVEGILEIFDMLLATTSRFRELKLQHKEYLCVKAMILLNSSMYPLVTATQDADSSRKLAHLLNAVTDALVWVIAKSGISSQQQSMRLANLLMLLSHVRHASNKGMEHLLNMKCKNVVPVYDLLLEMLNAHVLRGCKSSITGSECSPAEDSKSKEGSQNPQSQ
Experimental: as §1

[3] = system: MCF-7 breast adenocarcinoma cells; experiment: MCF-7 proliferation assay (14C-thymidine), antagonist mode; assay type: cell-based; conditions: Homo sapiens, MCF7, antagonist mode, with 10 pM E2
Experimental: MCF-7 breast adenocarcinoma cells (ATCC HTB 22) are maintained in MEM (minimal essential medium, phenol red-free, Gibco BRL) supplemented with 10% fetal bovine serum (FBS) (V/V), L-glutamine (2 mM), sodium pyruvate (1 mM), HEPES ((N-[2-hydroxyethyl]piperazine-N′-[2-ethanesulfonic acid]10 mM}, non-essential amino acids(0.1 mM)and Penicillin Streptomycin(1×). Seven days prior to assay, MCF-7 cells are switched to assay media which is the same as maintenance medium except supplemented with 10% dextran-coated charcoal-stripped fetal bovine serum (DCC-FBS) assay medium in place of 10% FBS. MCF-7 cells are removed from flasks using 10× Trypsin EDTA (phenol red free, Gibco BRL) and diluted to 1× in (Ca++/Mg++ free HBSS (phenol red-free). Cells are adjusted to 80,000 cells/ml in assay medium. Approximately 8,000 cells (100 μl) are added to each well in 96 well Cytostar T scintillation plates (Amersham) and incubated at 37° C. in a 5% CO2 humidified incubator for 24 hours to allow cell adherence and equilibration after transfer. Serial dilutions of drugs are prepared in assay medium at 4× the final desired concentration). A 50 μl aliquot of drug dilutions (at 4× the final assay concentration) is transferred to duplicate wells followed by 50 μl assay medium for the agonist mode or 50 μl of 40 pM of E2 for the antagonist mode to a final volume of 200 μl. For each of the agonist plates, a basal level (media) and a maximum stimulated level (with 1 μM E2) is determined. For each of the antagonist plates, a basal level (media) and a E2 (10 pM) alone control is determined. After an additional 48 hours at 37° C. in a 5% CO2 humidified incubator, 20 μl of assay medium containing 0.01 μCi of ^14C-thymidine (52 mCi/mmol, […], Amersham) is added to each well. The plates are incubated overnight in the same incubator and then counted on the Wallac Microbeta counter. […] For the agonist mode, an EC50 and percent of maximum E2 stimulation and concentration of maximum stimulation is calculated.

[4] = system: Ishikawa human endometrial tumor cells; experiment: Ishikawa cell assay (PNPP readout), agonist mode; assay type: cell-based; conditions: Homo sapiens, Ishikawa; for Emax: % efficacy versus the response to Tamoxifen, read-out: Ishikawa Agonist % Eff
Text: (§2) Ishikawa human endometrial tumor cells are maintained in MEM (minimum essential medium, with Earle's salts and L-Glutamine, Gibco BRL, Gaithersburg, Md.), supplemented with 10% fetal bovine serum (FBS) (V/V), (Gibco BRL). One day prior to assay, growth media is changed to assay medium, DMEM/F-12 (3:1) (Dulbecco's Modified Eagle Medium: Nutrient Mixture F-12, 3:1 Mixture, phenol red-free, Gibco BRL) supplemented with 5% dextran coated charcoal stripped fetal bovine serum (DCC-FBS) (Hyclone, Logen, Utah), L-Glutamine (2 mM), MEM sodium pyruvate (1 mM), HEPES (N-[2-hydroxyethyl]piperazine-N′-[2-ethanesulfonic acid] 2 mM) all from Gibco BRL). After an overnight incubation, ishikawa cells are rinsed with Dulbecco's Phosphate Buffered Saline (1×) (D-PBS) without Ca^+2 and Mg^+2 (Gibco BRL), and trypsinized by a 3 minute incubation with 0.25% Trypsin/EDTA, phenol red-free (Gibco BRL). Cells are resuspended in assay medium and adjusted to 250,000 cells/ml. Approximately 25,000 cells in a 100 ul media are added to flat-bottom 96 wells microculture plates (Costar 3596) and incubated at 37° C. in a 5% CO2 humidified incubator for 24 hours. The next day, serial dilutions of compounds are prepared in assay medium (at 6 times the final concentration in the assay). The assay is run in dual mode, agonist and antagonist modes. For the agonist mode, plates receive 25 μl/well of assay medium followed by 25 μl/well of diluted compounds (at 6× the final concentrations). For the antagonist mode, plates receive 25 μl/well of 6 nM E2 (β-Estradiol, Sigma, St. Louis, Mo.) followed by 25 μl/well of diluted compounds (at 6× the final concentrations). After an additional 48-hour incubation at 37° C. in a 5% CO2 humidified incubator, media is aspirated from wells and 100 μl fresh assay medium is added to each microculture. Serial dilutions of compounds are prepared and added to the cells as described above. After an additional 72 hour incubation at 37° C. in a 5% CO2 humidified incubator, the assay is quenched by removing media and rinsing plates twice in Dulbecco's Phosphate Buffered Saline (1×) (D-PBS) (Gibco BRL). The plates are dried for 5 min and frozen at −70° C. for at least 1 hour. The plates are then removed from the freezer and allowed to thaw at room temperature. To each well, 100 μl of 1-Step™ PNPP (Pierce Chemical Company, Rockford, Ill.) is added. After a 20-minute incubation, plates are read on a spectophotometer at 405 nm. The data is fitted to a linear interpolation to derive EC50 (for agonist mode) or IC50 (for antagonist mode) values. For the agonist mode, a % efficacy for each compound is calculated versus the response to Tamoxifen. For the antagonist mode, a % efficacy for each compound is calculated versus E2 (1 nM) alone.

[5] = system: Ishikawa human endometrial tumor cells; experiment: Ishikawa cell assay (PNPP readout), antagonist mode; assay type: cell-based; conditions: with 1 nM E2
Text: as §2

SMILES | Ki [1] | Ki [2] | IC50 [3] | EC50 [4] | Emax [4] | IC50 [5]
Oc1ccc2c(c1)C(c1ccc(OCCN3CCCCC3)cc1)c1c(ccc3cc(O)ccc13)C2 (stereo not drawn) [Example 8, 12-[4-(2-Piperidin-1-yl-ethoxy)-phenyl]-7,12-dihydro-benzo[a]anthracene-3,10-diol] | 1 nM | 3 nM | 7 nM | 3 nM | 75% | 130 nM
Oc1ccc2c3c(ccc2c1)Cc1cccc(O)c1C3c1ccc(OCCN2CCCCC2)cc1 (stereo not drawn) [Example 12, 12-[4-(2-Piperidin-1-yl-ethoxy)-phenyl]-7,12-dihydro-benzo[a]anthracene-3,11-diol] | 8 nM | 40 nM | 68 nM | 28 nM | 77% | 582 nM
Oc1ccc2c3c(ccc2c1)Cc1c(O)cccc1C3c1ccc(OCCN2CCCCC2)cc1 (stereo not drawn) [Example 13, 12-[4-(2-Piperidin-1-yl-ethoxy)-phenyl]-7,12-dihydro-benzo[a]anthracene-3,8-diol] | 1 nM | 5 nM | 3 nM | 1 nM | 121% | 50 nM
